What was measured:
[1] = system: Human umbilical vein endothelial cells 7016 (HUVEC); assay: Invasion chamber: fetal calf serum induced endothelial cell invasion through matrigel treated inserts (trilostane III); details: for Mean FU: 50 μM, 5% FCS in bottom chamber, 24 hours, background subtracted, n=3
Protocol: 1. Trypsinized HUVEC cells from flasks grown in Cambrex EGM-2 media to 70-80% confluence were washed two times with 37° C. EGM-2 with 0.1% FCS.
2. Cell suspensions containing 30,000 cells and compounds in EGM-2 0.1% FCS were added to the upper chamber of inserts.
3. EGM-2 containing 5% FCS was added to the bottom chamber and then incubated for 24 hours at 37° C. and 5% CO2.
4. Non-invading cells were removed from the upper chamber with cotton swab and the inserts were washed two times with 37° C. HBSS.
5. Inserts were then placed in wells containing 10 μM Calcein AM in HBSS.
6. Following four hours at 37° C. and 5% CO2, fluorescence was measured at 485 nm excitation and 595 nm emission.
Results are presented as mean fluorescent units (FU) in triplicate (n=3) with background fluorescence subtracted. […] To determine background invasion, nil inserts were included in triplicate that had EGM-2 with 0.1% FCS added to the bottom chamber.

HUVEC cells [2] = assay: Trilostane III tube formation assay in extracellular matrix gel; assay type: cell-based, Human; details: 50 μM; 18 hours; without added 5% FCS (nil wells, 0.1% FCS)
Protocol: 1. […] EGM-2 with 0.1% FCS.
2. Cell suspensions containing 10,000 cells and compounds in both EGM-2 0.1% and 5% FCS were added per well then incubated for 18 hours at 37° C. and 5% CO2.
3. Following incubation, tube formations were photographed under microscope.
Passage 3 HUVEC 8750 cells were used for this experiment at 98% viability by trypan blue exclusion at time of seeding.

HUVEC cells [3] = assay: Danazol BioCoat Matrigel Invasion Chamber; assay type: cell-based, Human; details: 5% FCS in bottom chamber; 24 hours; concentration not stated with the value
Protocol: BioCoat Matrigel Invasion Chambers were purchased from BD Biosciences (San Jose, Calif.). Inserts were rehydrated at 37° C. with 500 μl HBSS for 2 hours prior to use in humidified incubator. Trypsinized HUVEC cells were washed twice with warm EGM-2 containing 0.1% FCS and added to the upper chamber of the invasion insert at 100,000 cells in a total volume of 250 μl. Danazol and control compounds were added to the upper reservoir at final concentrations of 10 μM and 100 μM. 750 μl EGM-2 supplemented with 5% FCS was added to the bottom chamber to initiate invasion and the plates were incubated for 24 hours. Non-invasive cells were removed from the upper chamber with moistened cotton swabs and then the inserts were washed twice with HBSS. The inserts were then submerged in 10 μM calcein AM prepared in HBSS and incubated for 4 hours. Fluorescence was determined in a microplate reader at 485 nm excitation and 595 nm emission.
All data is presented as representative experiment done in triplicate. Differences between subsets were analyzed using student t-test in Microsoft Excel. P<0.05 was considered statistically significant.

| Structure (SMILES) | Mean FU [1] [FU] | effect on endothelial cell invasion ([1]; high dose (50 μM), 5% FCS induced invasion) | tube formation (HUVEC cells [2]) | fluorescence of invaded cells (HUVEC cells [3]) [FU] |
| --- | --- | --- | --- | --- |
| O=c1cc(N2CCNCC2)oc2c(-c3ccccc3)cccc12 [LY303511] | 12795.3 | had no effect on invasion | comparable tube formations to untreated cells |  |
| O=c1cc(N2CCOCC2)oc2c(-c3ccccc3)cccc12 [LY294002] | 9454.33 |  |  | 5814±153 |
